Laboratory results: US10721934B2, “Enhanced preservative” (Arch Chemicals, Inc., priority 2013, dated 2020)

Experiments:
Type in all cases: cell-based
Candida albicans = test: MIC test, 96 well microtiter plate; conditions: single chemical
Method: (§1) MIC set up: A 96 well microtiter plate Minimum Inhibitory Concentration (MIC) test was run in broth suitable for the test organism. Serially diluted actives were prepared in sterilized water, and the start-up concentration varied depending on the efficacy range. Inocula prepared in 2× suitable broth was added into each well, and the final concentrations of bacteria were adjusted to approximately 5×10^5.
(§2) Further MIC tests were conducted using different amine compounds in combination with a pyrithione and two different isothiazolinones. The procedures described in Example No. 1 were used.

Aspergillus brasiliensis = test: MIC test, 96 well microtiter plate; conditions: single chemical
Method: as §1, §2

Escherichia coli = test: MIC test, 96 well microtiter plate; conditions: single chemical
Method: as §1, §2

Staphylococcus aureus = test: MIC test, 96 well microtiter plate; conditions: single chemical
Method: as §1, §2

Aureobasidium pullulans = test: MIC test, 96 well microtiter plate; conditions: single chemical
Method: as §1, §2

[1] = test system: Pseudomonas aeruginosa ATCC 15442; test: Minimum Inhibitory Concentration (MIC) test, 96 well microtiter plate; conditions: single chemical
Method: Microorganisms: Pseudomonas aeruginosa ATCC 15442
as §1

[2] = test system: mixed bacterial inoculum (Pseudomonas aeruginosa, Enterobacter cloacae, Escherichia coli, Acinetobacter calcoaceticus); test: Repeated inoculation of standard acrylic paint, streak plate rating
Method: In the following experiments, a pyrithione, an isothiazolinone, and a biocide enhancing agent in accordance with the present disclosure were combined with a standard acrylic paint. The concentrations of the pyrithione, the isothiazolinone and the biocide enhancing agent were varied. The pyrithione, the isothiazolinone and the biocide enhancing agent were added alone and in various mixtures to the standard acrylic paint.
The acrylic paint was then inoculated three times using a mixed bacterial inoculum. The bacterial inoculum, which comprised a bacterial suspension in water, contained the following four bacteria in equal proportions.
The samples were streak plated at 24, 48, and 72 hours after inoculation. The streak plates were rated as follows;

**Q.** Which “Minimum Inhibitory Concentration” value (Candida albicans) does the source give for O=c1[nH]sc2ccccc12 [BIT, 1,2 Benzisothiazolin-3-one] here?
**A.** 8.1 ppm

**Q.** What about the “Minimum Inhibitory Concentration” value (Aspergillus brasiliensis) of the same compound?
**A.** 32.5 ppm

**Q.** And the “Minimum Inhibitory Concentration” value (Escherichia coli)?
**A.** 6.1 ppm

**Q.** And the “Minimum Inhibitory Concentration” value (Staphylococcus aureus)?
**A.** 8.1 ppm

**Q.** And the “Minimum Inhibitory Concentration” value (Aureobasidium pullulans)?
**A.** 4.1 ppm

**Q.** What about the “Minimum Inhibitory Concentration” value [1] of the same compound?
**A.** 32.5 ppm

**Q.** What about the streak plate rating ([2]; Set Five, BIT 50 ppm, 1st inoculation 24 h) of the same compound?
**A.** 5 (>45 viable microorganisms Severely contaminated)

**Q.** And the streak plate rating ([2]; Set Five, BIT 50 ppm, 1st inoculation 48 h)?
**A.** 5 (>45 viable microorganisms Severely contaminated)

**Q.** What about the streak plate rating ([2]; Set Five, BIT 50 ppm, 1st inoculation 72 h) of the same compound?
**A.** 5 (>45 viable microorganisms Severely contaminated)

**Q.** And the streak plate rating ([2]; Set Five, BIT 50 ppm, 2nd inoculation 24 h)?
**A.** 5 (>45 viable microorganisms Severely contaminated)

**Q.** What about the streak plate rating ([2]; Set Five, BIT 50 ppm, 2nd inoculation 48 h) of the same compound?
**A.** 5 (>45 viable microorganisms Severely contaminated)

**Q.** And the streak plate rating ([2]; Set Five, BIT 50 ppm, 2nd inoculation 72 h)?
**A.** 5 (>45 viable microorganisms Severely contaminated)

**Q.** And the streak plate rating ([2]; Set Five, BIT 50 ppm, 3rd inoculation 24 h)?
**A.** 5 (>45 viable microorganisms Severely contaminated)

**Q.** And the streak plate rating ([2]; Set Five, BIT 50 ppm, 3rd inoculation 48 h)?
**A.** 5 (>45 viable microorganisms Severely contaminated)

**Q.** And the streak plate rating ([2]; Set Five, BIT 50 ppm, 3rd inoculation 72 h)?
**A.** 5 (>45 viable microorganisms Severely contaminated)

**Q.** What about the streak plate rating ([2]; Set Four, BIT 50 ppm, 1st inoculation 24 h) of the same compound?
**A.** 5 (>45 viable microorganisms Severely contaminated)

**Q.** What about the streak plate rating ([2]; Set Four, BIT 50 ppm, 1st inoculation 48 h) of the same compound?
**A.** 5 (>45 viable microorganisms Severely contaminated)

**Q.** What about the streak plate rating ([2]; Set Four, BIT 50 ppm, 1st inoculation 72 h) of the same compound?
**A.** 5 (>45 viable microorganisms Severely contaminated)

**Q.** What about the streak plate rating ([2]; Set Four, BIT 50 ppm, 2nd inoculation 24 h) of the same compound?
**A.** 5 (>45 viable microorganisms Severely contaminated)

**Q.** And the streak plate rating ([2]; Set Four, BIT 50 ppm, 2nd inoculation 48 h)?
**A.** 5 (>45 viable microorganisms Severely contaminated)

**Q.** What about the streak plate rating ([2]; Set Four, BIT 50 ppm, 2nd inoculation 72 h) of the same compound?
**A.** 5 (>45 viable microorganisms Severely contaminated)

**Q.** And the streak plate rating ([2]; Set Four, BIT 50 ppm, 3rd inoculation 24 h)?
**A.** 5 (>45 viable microorganisms Severely contaminated)

**Q.** And the streak plate rating ([2]; Set Four, BIT 50 ppm, 3rd inoculation 48 h)?
**A.** 5 (>45 viable microorganisms Severely contaminated)

**Q.** What about the streak plate rating ([2]; Set Four, BIT 50 ppm, 3rd inoculation 72 h) of the same compound?
**A.** 5 (>45 viable microorganisms Severely contaminated)

**Q.** And the streak plate rating ([2]; Set One, BIT 60 ppm, 1st inoculation 24 h)?
**A.** 5 (>45 viable microorganisms Severely contaminated)

**Q.** What about the streak plate rating ([2]; Set One, BIT 60 ppm, 1st inoculation 48 h) of the same compound?
**A.** 5 (>45 viable microorganisms Severely contaminated)

**Q.** What about the streak plate rating ([2]; Set One, BIT 60 ppm, 1st inoculation 72 h) of the same compound?
**A.** 5 (>45 viable microorganisms Severely contaminated)

**Q.** What about the streak plate rating ([2]; Set One, BIT 60 ppm, 2nd inoculation 24 h) of the same compound?
**A.** 5 (>45 viable microorganisms Severely contaminated)

**Q.** What about the streak plate rating ([2]; Set One, BIT 60 ppm, 2nd inoculation 48 h) of the same compound?
**A.** 5 (>45 viable microorganisms Severely contaminated)

**Q.** And the streak plate rating ([2]; Set One, BIT 60 ppm, 3rd inoculation 24 h)?
**A.** 5 (>45 viable microorganisms Severely contaminated)

**Q.** And the streak plate rating ([2]; Set One, BIT 60 ppm, 3rd inoculation 48 h)?
**A.** 5 (>45 viable microorganisms Severely contaminated)

**Q.** What about the streak plate rating ([2]; Set One, BIT 60 ppm, 3rd inoculation 72 h) of the same compound?
**A.** 5 (>45 viable microorganisms Severely contaminated)

**Q.** And the streak plate rating ([2]; Set One, BIT 120 ppm, 1st inoculation 24 h)?
**A.** 1 (1-5 viable microorganisms Very lightly contaminated)

**Q.** What about the streak plate rating ([2]; Set One, BIT 120 ppm, 1st inoculation 48 h) of the same compound?
**A.** 3 (16-30 viable microorganisms Moderately contaminated)

**Q.** And the streak plate rating ([2]; Set One, BIT 120 ppm, 1st inoculation 72 h)?
**A.** 3 (16-30 viable microorganisms Moderately contaminated)

**Q.** And the streak plate rating ([2]; Set One, BIT 120 ppm, 2nd inoculation 24 h)?
**A.** 5 (>45 viable microorganisms Severely contaminated)

**Q.** And the streak plate rating ([2]; Set One, BIT 120 ppm, 2nd inoculation 48 h)?
**A.** 5 (>45 viable microorganisms Severely contaminated)

**Q.** And the streak plate rating ([2]; Set One, BIT 120 ppm, 3rd inoculation 24 h)?
**A.** 5 (>45 viable microorganisms Severely contaminated)

**Q.** What about the streak plate rating ([2]; Set One, BIT 120 ppm, 3rd inoculation 48 h) of the same compound?
**A.** 5 (>45 viable microorganisms Severely contaminated)

**Q.** And the streak plate rating ([2]; Set One, BIT 120 ppm, 3rd inoculation 72 h)?
**A.** 5 (>45 viable microorganisms Severely contaminated)

**Q.** What about the streak plate rating ([2]; Set Three, BIT 50 ppm, 1st inoculation 24 h) of the same compound?
**A.** 5 (>45 viable microorganisms Severely contaminated)

**Q.** What about the streak plate rating ([2]; Set Three, BIT 50 ppm, 1st inoculation 48 h) of the same compound?
**A.** 5 (>45 viable microorganisms Severely contaminated)

**Q.** What about the streak plate rating ([2]; Set Three, BIT 50 ppm, 1st inoculation 72 h) of the same compound?
**A.** 5 (>45 viable microorganisms Severely contaminated)

**Q.** And the streak plate rating ([2]; Set Three, BIT 50 ppm, 2nd inoculation 24 h)?
**A.** 5 (>45 viable microorganisms Severely contaminated)

**Q.** What about the streak plate rating ([2]; Set Three, BIT 50 ppm, 2nd inoculation 48 h) of the same compound?
**A.** 5 (>45 viable microorganisms Severely contaminated)

**Q.** What about the streak plate rating ([2]; Set Three, BIT 50 ppm, 2nd inoculation 72 h) of the same compound?
**A.** 5 (>45 viable microorganisms Severely contaminated)

**Q.** And the streak plate rating ([2]; Set Three, BIT 50 ppm, 3rd inoculation 24 h)?
**A.** 5 (>45 viable microorganisms Severely contaminated)

**Q.** And the streak plate rating ([2]; Set Three, BIT 50 ppm, 3rd inoculation 48 h)?
**A.** 5 (>45 viable microorganisms Severely contaminated)

**Q.** What about the streak plate rating ([2]; Set Three, BIT 50 ppm, 3rd inoculation 72 h) of the same compound?
**A.** 5 (>45 viable microorganisms Severely contaminated)

**Q.** And the streak plate rating ([2]; Set Two, BIT 25 ppm, 1st inoculation 24 h)?
**A.** 5 (>45 viable microorganisms Severely contaminated)

**Q.** And the streak plate rating ([2]; Set Two, BIT 25 ppm, 1st inoculation 48 h)?
**A.** 5 (>45 viable microorganisms Severely contaminated)

**Q.** What about the streak plate rating ([2]; Set Two, BIT 25 ppm, 1st inoculation 72 h) of the same compound?
**A.** 5 (>45 viable microorganisms Severely contaminated)

**Q.** What about the streak plate rating ([2]; Set Two, BIT 25 ppm, 2nd inoculation 24 h) of the same compound?
**A.** 5 (>45 viable microorganisms Severely contaminated)

**Q.** And the streak plate rating ([2]; Set Two, BIT 25 ppm, 2nd inoculation 48 h)?
**A.** 5 (>45 viable microorganisms Severely contaminated)

**Q.** And the streak plate rating ([2]; Set Two, BIT 25 ppm, 2nd inoculation 72 h)?
**A.** 5 (>45 viable microorganisms Severely contaminated)

**Q.** What about the streak plate rating ([2]; Set Two, BIT 25 ppm, 3rd inoculation 24 h) of the same compound?
**A.** 5 (>45 viable microorganisms Severely contaminated)

**Q.** And the streak plate rating ([2]; Set Two, BIT 25 ppm, 3rd inoculation 48 h)?
**A.** 5 (>45 viable microorganisms Severely contaminated)

**Q.** What about the streak plate rating ([2]; Set Two, BIT 25 ppm, 3rd inoculation 72 h) of the same compound?
**A.** 5 (>45 viable microorganisms Severely contaminated)

**Q.** And the streak plate rating ([2]; Set Two, BIT 50 ppm, 1st inoculation 24 h)?
**A.** 5 (>45 viable microorganisms Severely contaminated)

**Q.** What about the streak plate rating ([2]; Set Two, BIT 50 ppm, 1st inoculation 48 h) of the same compound?
**A.** 5 (>45 viable microorganisms Severely contaminated)

**Q.** And the streak plate rating ([2]; Set Two, BIT 50 ppm, 1st inoculation 72 h)?
**A.** 5 (>45 viable microorganisms Severely contaminated)

**Q.** What about the streak plate rating ([2]; Set Two, BIT 50 ppm, 2nd inoculation 24 h) of the same compound?
**A.** 5 (>45 viable microorganisms Severely contaminated)

**Q.** What about the streak plate rating ([2]; Set Two, BIT 50 ppm, 2nd inoculation 48 h) of the same compound?
**A.** 5 (>45 viable microorganisms Severely contaminated)

**Q.** And the streak plate rating ([2]; Set Two, BIT 50 ppm, 2nd inoculation 72 h)?
**A.** 5 (>45 viable microorganisms Severely contaminated)

**Q.** And the streak plate rating ([2]; Set Two, BIT 50 ppm, 3rd inoculation 24 h)?
**A.** 5 (>45 viable microorganisms Severely contaminated)

**Q.** And the streak plate rating ([2]; Set Two, BIT 50 ppm, 3rd inoculation 48 h)?
**A.** 5 (>45 viable microorganisms Severely contaminated)

**Q.** What about the streak plate rating ([2]; Set Two, BIT 50 ppm, 3rd inoculation 72 h) of the same compound?
**A.** 5 (>45 viable microorganisms Severely contaminated)
